In patent US11407719B2, “Anti-inflammatory agents” (Resverlogix Corp., priority 2009, dated 2022):

system: hIL-6 mRNA; experiment: Quantification of hIL-6 mRNA; type: cell-based, human; design: key: Active: an active compound is one that causes a ≥20% inhibition in IL-6 mRNA at a concentration less than or equal to 10 μM; conditions: IL-6 mRNA by real-time PCR; differentiated U937 cells, 1 h pretreatment, lipopolysaccharide stimulation 3 h; concentration ≤10 μM
Description: In this example, […] in tissue culture cells was quantitated to measure the transcriptional inhibition of hIL-6 when treated with a compound of the invention.
A human leukemic monocyte lymphoma cell line (U937) was plated (3.2×10^5 cells per well) in a 96-well plate in 100 μL RPMI-1640, and differentiated for 3 days prior to the addition of the compound of interest. The cells were pretreated for 1 h with the test compound prior to stimulation with lipolysaccharide from Escherichia coli. The cells were incubated at 37° C. for 3 h before the cells were harvested. At time of harvest, the spent media was removed from the cells and the cells were rinsed in 200 μL PBS. Cell lysis solution (70 μL) was added the cells in each well and incubated for 5-10 min at room temperature, to allow for complete cell lysis and detachment. mRNA was then prepared using the “mRNA Catcher PLUS plate” (Invitrogen), according to the protocol supplied. After the last wash, as much wash buffer as possible was aspirated without allowing the wells to dry. Elution buffer (E3, 70 μL) was then added to each well. mRNA was then eluted by incubating the mRNA Catcher PLUS plate with Elution Buffer for 5 min at 68° C. and then immediately placing the plate on ice.
The eluted mRNA isolated was then used in a one-step quantitative real-time PCR reaction, using components of the Ultra Sense Kit together with Applied Biosystems primer-probe mixes. Real-time PCR data was analyzed, normalizing the Ct values for hIL-6 to an internal control, prior to determining the fold induction of each unknown sample, relative to the control.

Compound | Inhibition of IL-6 expression
COc1cc(OC)c2c(=O)[nH]c(-c3ccc(N4CCC(NC(=O)N(C)C)CC4)cc3)nc2c1 [3-(1-(4-(5,7-Dimethoxy-4-oxo-3,4-dihydroquinazolin-2-yl)phenyl)piperidin-4-yl)-1,1-dimethylurea] | Active
COc1cc(OC)c2c(=O)[nH]c(-c3ccc(Nc4ccc(C)cc4)cc3)nc2c1 [5,7-Dimethoxy-2-(4-(p-tolylamino)phenyl)quinazolin-4(3H)-one] | Active
COc1cc(OC)c2c(=O)[nH]c(-c3ccc(N(CCO)CCO)cc3)nc2n1 [2-(4-(bis(2-hydroxyethyl)amino)phenyl)-5,7-dimethoxypyrido[2,3-d]pyrimidin-4(3H)-one] | Active
COc1cc(OC)c2c(=O)[nH]c(-c3ccc4[nH]nc(CO)c4c3)nc2c1 [2-(3-(Hydroxymethyl)-1H-indazol-5-yl)-5,7-dimethoxyquinazolin-4(3H)-one] | Active
COc1cc(OC)c2c(=O)[nH]c(-c3ccc(N4CCC(NCc5ccccc5)CC4)nc3)nc2c1 [2-(6-(4-(Benzylamino)piperidin-1-yl)pyridin-3-yl)-5,7-dimethoxyquinazolin-4(3H)-one] | Active
COc1cc(OC)c2c(=O)[nH]c(-c3ccc4[nH]c(CO)cc4c3)nc2c1 [2-(2-(Hydroxymethyl)-1H-indol-5-yl)-5,7-dimethoxyquinazolin-4(3H)-one] | Active
CNC1CCN(c2ccc(-c3nc4cc(OC)cc(OC)c4c(=O)[nH]3)cc2)C1 (stereo not drawn) [5,7-Dimethoxy-2-(4-(3-(methylamino)pyrrolidin-1-yl)phenyl)quinazolin-4(3H)-one] | Active
COc1cc(OC)c2c(=O)[nH]c(-c3ccc(CN4CCC(NC(C)C)CC4)cc3)nc2c1 [2-(4-((4-(Isopropylamino)piperidin-1-yl)methyl)phenyl)-5,7-dimethoxyquinazolin-4(3H)-one] | Active
COc1cc(OC)c2c(=O)[nH]c(-c3ccc(N4CCCN(C(C)=O)CC4)cc3)nc2c1 [2-(4-(4-Acetyl-1,4-diazepan-1-yl)phenyl)-5,7-dimethoxyquinazolin-4(3H)-one] | Active
COc1cc(OC)c2c(=O)[nH]c(-c3ccc(N4CCC(N(Cc5ccccc5)C(C)=O)CC4)nc3)nc2c1 [N-Benzyl-N-(1-(5-(5,7-dimethoxy-4-oxo-3,4-dihydroquinazolin-2-yl)pyridin-2-yl)piperidin-4-yl)acetamide] | Active
COc1cc(OC)c2c(=O)[nH]c(-c3ccc(Nc4ccncc4)cc3)nc2c1 [5,7-Dimethoxy-2-(4-(pyridin-4-ylamino)phenyl)quinazolin-4(3H)-one] | Active
COc1cc(OC)c2c(=O)[nH]c(-c3ccc(N4CCC(NC(C)C)CC4)cc3)nc2c1 [2-(4-(4-(Isopropylamino)piperidin-1-yl)phenyl)-5,7-dimethoxyquinazolin-4(3H)-one] | Active
COc1cc(OC)c2c(=O)[nH]c(-c3ccc(N4CCN(C(=O)c5cccs5)CC4)cc3)nc2c1 [5,7-Dimethoxy-2-(4-(4-(thiophene-2-carbonyl)piperazin-1-yl)phenyl)quinazolin-4(3H)-one] | Active
COc1cc(OC)c2c(=O)[nH]c(-c3cc(C)c(OCCCN4CCCC4)c(C)c3)nc2c1 [2-(3,5-Dimethyl-4-(3-(pyrrolidin-1-yl)propoxy)phenyl)-5,7-dimethoxyquinazolin-4(3H)-one] | Active
COc1cc(OC)c2c(=O)[nH]c(-c3ccc(CN4CCN(C(C)C)CC4)cc3)nc2c1 [2-(44(4-Isopropylpiperazin-1-yl)methyl)phenyl)-5,7-dimethoxyquinazolin-4(3H)-one] | Active
COc1cc(OC)c2c(=O)[nH]c(-c3ccc(N4CCN(C(=O)c5ccccn5)CC4)cc3)nc2c1 [5,7-Dimethoxy-2-(4-(4-picolinoylpiperazin-1-yl)phenyl)quinazolin-4(3H)-one] | Active
COc1cc(OC)c2c(=O)[nH]c(-c3ccc(NS(C)(=O)=O)cc3)nc2c1 [N-(4-(5,7-Dimethoxy-4-oxo-3,4-dihydroquinazolin-2-yl)phenyl)methanesulfonamide] | Active
COc1cc(OC)c2c(=O)[nH]c(-c3ccc(N4C[C@@H](C)N(C(C)=O)[C@@H](C)C4)cc3)nc2n1 [2-(4-((3R,5S)-4-Acetyl-3,5-dimethylpiperazin-1-yl)phenyl)-5,7-dimethoxypyrido[2,3-d]pyrimidin-4(3H)-one] | Active

Compound | Inhibition of IL-6 expression
COc1cc(OC)c2c(=O)[nH]c(-c3ccc4[nH]c(CCO)cc4c3)nc2c1 [2-(2-(2-Hydroxyethyl)-1H-indol-5-yl)-5,7-dimethoxyquinazolin-4(3H)-one] | Active
COc1cc(OC)c2c(=O)[nH]c(-c3ccc(OC4CCN(C(=O)N(C)C)CC4)cc3)nc2c1 [4-(4-(5,7-Dimethoxy-4-oxo-3,4-dihydroquinazolin-2-yl)phenoxy)-N,N-dimethylpiperidine-1-carboxamide] | Active
COc1cc(OC)c2c(=O)[nH]c(-c3ccc(N4CCN(Cc5ccccc5)CC4)cc3)nc2c1 [2-(4-(4-Benzylpiperazin-1-yl)phenyl)-5,7-dimethoxyquinazolin-4(3H)-one] | Active
COc1cc(OC)c2c(=O)[nH]c(-c3ccc(C4CCN(C(=O)OC(C)(C)C)CC4)cc3)nc2c1 [Tert-butyl 4-(4-(5,7-dimethoxy-4-oxo-3,4-dihydroquinazolin-2-yl)phenyl)piperidine-1-carboxylate] | Active
COc1cc(OC)c2c(=O)[nH]c(-c3ccc(C4CCN(C(C)=O)CC4)cc3)nc2c1 [2-(4-(1-acetylpiperidin-4-yl)phenyl)-5,7-dimethoxyquinazolin-4(3H)-one] | Active
COc1cc(OC)c2c(=O)[nH]c(-c3ccc(N4C[C@@H](C)N(C(C)C)[C@@H](C)C4)cc3)nc2c1 [2-(4-((3R,5S)-4-Isopropyl-3,5-dimethylpiperazin-1-yl)phenyl)-5,7-dimethoxyquinazolin-4(3H)-one] | Active
COc1cc(OC)c2c(=O)[nH]c(-c3cc(C)c(OCCN4CCOCC4)c(C)c3)cc2c1 [3-(3,5-dimethyl-4-(2-morpholinoethoxy)phenyl)-6,8-dimethoxyisoquinolin-1(2H)-one] | Active
COc1cc(OC)c2c(=O)[nH]c(-c3ccc(N4CCOCC4)cc3)nc2c1 [5,7-dimethoxy-2-(4-morpholinophenyl)quinazolin-4(3H)-one] | Active
CC(C)N1CCN(c2ccc(-c3nc4cccc(Cl)c4c(=O)[nH]3)cc2)CC1 [5-Chloro-2-(4-(4-isopropylpiperazin-1-yl)phenyl)quinazolin-4(3H)-one] | Active
COc1cc(OC)c2c(=O)[nH]c(-c3ccc(N4CCN(Cc5ccc(F)cc5)CC4)cc3)nc2c1 [2-(4-(4-(4-Fluorobenzyl)piperazin-1-yl)phenyl)-5,7-dimethoxyquinazolin-4(3H)-one] | Active
COc1cc(OC)c2c(=O)[nH]c(-c3ccc(N4CCN(C=O)CC4)cc3)nc2c1 [4-(4-(5,7-Dimethoxy-4-oxo-3,4-dihydroquinazolin-2-yl)phenyl)piperazine-1-carbaldehyde] | Active
COc1cc(OC)c2c(=O)[nH]c(-c3ccc(N4CCN(C(=O)c5cccnc5)CC4)cc3)nc2c1 [5,7-Dimethoxy-2-(4-(4-nicotinoylpiperazin-1-yl)phenyl)quinazolin-4(3H)-one] | Active
COc1cc(OC)c2c(=O)[nH]c(-c3ccc(N4CCN(C(=O)c5ccncc5)CC4)cc3)nc2c1 [2-(4-(4-Isonicotinoylpiperazin-1-yl)phenyl)-5,7-dimethoxyquinazolin-4(3H)-one] | Active
COc1cc(OC)c2c(=O)[nH]c(-c3ccc(C4CCNCC4)cc3)nc2c1 [5,7-Dimethoxy-2-(4-(piperidin-4-yl)phenyl)quinazolin-4(3H)-one] | Active
COc1cc(OC)c2c(=O)[nH]c(-c3ccc(CN4CCC(N(C(C)=O)C(C)C)CC4)cc3)nc2c1 [N-(1-(4-(5,7-Dimethoxy-4-oxo-3,4-dihydroquinazolin-2-yl)benzyl)piperidin-4-yl)-N-isopropylacetamide] | Active
COc1cc(OC)c2c(=O)[nH]c(-c3ccc(OC4CCN(C(C)=O)CC4)cc3)nc2c1 [2-(4-(1-Acetylpiperidin-4-yloxy)phenyl)-5,7-dimethoxyquinazolin-4(3H)-one] | Active
COc1cc(OC)c2c(=O)[nH]c(-c3cc(C)c(OCCN4CCN(C)CC4)c(C)c3)cc2c1 [3-(3,5-dimethyl-4-(2-(4-methylpiperazin-1-yl)ethoxy)phenyl)-6,8-dimethoxyisoquinolin-1(2H)-one] | Active
COc1cc(OC)c2c(=O)[nH]c(-c3cc(C)c(OCCN4C(=O)c5ccccc5C4=O)c(C)c3)cc2c1 [2-(2-(4-(6,8-Dimethoxy-1-oxo-1,2-dihydroisoquinolin-3-yl)-2,6-dimethylphenoxy)ethyl)isoindoline-1,3-dione] | Active
